Laboratory results published in patent US6335333B1, “N-arylsulfonylamino acid omega-amides” (Aventis Pharma Deutschland GmbH, priority 1998, dated 2002).
pIC50: −log10 of the molar value. ≈ marks a conversion by molar mass, not a printed value. Structures can show the parent of a compound that is named as a salt. Where two headings read alike, the source gives them in different places.

How the values were obtained:
[1] = Determination of the solubility in water (HPLC against external standard); format: physicochemical
Description: Determination of the solubility in water of the free acid of 2-(4′-chloro-biphenyl-4-sulfonylamino)-5-(5-fluoro-2,3-dihydroindol-1-yl)-5-oxopentanoic acid according to Example 8 and its tromethamine salt according to Example 15
(§1) Approximately 50 mg of test substance according to 1.1a) were initially introduced into a 100 ml Erlenmeyer flask. After addition of 10 ml of water, the mixture was stirred at 25° C. After 2 hours (h) and after 3 h, aliquots were taken and centrifuged. 1 ml each of the supernatant was diluted to 10 ml with mobile phase. The concentration of the active component was determined by means of HPLC against an external standard. Repetition of the experiment.
as §1, with “Approximately 800” for “Approximately 50”, “of the tromethamine salt” for “of test substance”, “to 1.1b)” for “to 1.1a)”, “2 h” for “2 hours (h)”, “to 100” for “to 10”

[2] = molecular target: T1, human stromelysin (MMP-3) (Homo sapiens, UniProt P08254); assay: Inhibition of enzymatic activity of catalytic domain of stromelysin (fluorogenic substrate); format: biochemical; details: pH 6.5, 15 min preincubation
T1 construct: enzymatic activity of the catalytic domain of human stromelysin; made in house
T1 sequence (P08254 100-272 limits assumed): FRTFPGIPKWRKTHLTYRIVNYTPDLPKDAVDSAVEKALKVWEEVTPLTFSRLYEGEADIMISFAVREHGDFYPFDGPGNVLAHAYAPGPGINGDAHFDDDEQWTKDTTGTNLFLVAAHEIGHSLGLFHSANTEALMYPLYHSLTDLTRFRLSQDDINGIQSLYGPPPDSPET
Description: (§2) Preparation and determination of the enzymatic activity of the catalytic domain of human stromelysin and of neutrophil collagenase.
(§3) The two enzymes—stromelysin (MMP-3) and neutrophil collagenase (MMP-8)—were prepared according to Ye et al. (Biochemistry; 31 (1992) pages 11231-11235) or Weithmann et al. (Inflamm Res 46(1997) 246-252). For measurement of the inhibitory action on the enzymatic activity, 70 μl of buffer solution and 10 μl of enzyme solution were incubated for 15 minutes with 10 μl of a 10% strength (v/v) aqueous dimethyl sulfoxide solution which optionally contained the enzyme inhibitor. After addition of 10 μl of a 10% strength (v/v) aqueous dimethyl sulfoxide solution which contained 1 mmol/l of the substrate, the enzyme reaction was monitored by fluorescence spectroscopy (328 nm (ex)/393 nm (em)). The enzyme activity was shown as the extinction increase/minute. The IC50 values listed in Table 2 were determined as those inhibitor concentrations which in each case led to a 50% inhibition of the enzyme. The buffer solution contained 0.05% of Brij (Sigma, Deisenhofen, Germany) and 0.1 mol/l of piperazine-N,N′-bis[2-ethanesulfonic acid]/NaOH, 0.1 mol/l of NaCl, 0.01 mol/l of CaCl2 and 0.1 mol/l of piperazine-N,N′-bis[2-ethanesulfonic acid] (pH=6.5). The enzyme solution contained 5 μg/ml of one of the enzyme domains prepared according to Ye et al. The substrate solution contained 1 mmol/l of the fluorogenic substrate (7-methoxycoumarin-4-yl)acetyl-Pro-Leu-Gly-Leu-3-(2′,4′-dinitrophenyl)-L-2,3-diaminopropionyl-Ala-Arg-NH2 (Bachem, Heidelberg, Germany).

[3] = molecular target: T2, neutrophil collagenase (MMP-8) (Homo sapiens, UniProt P22894); assay: Inhibition of enzymatic activity of catalytic domain of neutrophil collagenase (fluorogenic substrate); format: biochemical; details: pH 6.5, 15 min preincubation
T2 construct: catalytic domain of human stromelysin and of neutrophil collagenase; made in house
T2 sequence (P22894 100-262 limits assumed): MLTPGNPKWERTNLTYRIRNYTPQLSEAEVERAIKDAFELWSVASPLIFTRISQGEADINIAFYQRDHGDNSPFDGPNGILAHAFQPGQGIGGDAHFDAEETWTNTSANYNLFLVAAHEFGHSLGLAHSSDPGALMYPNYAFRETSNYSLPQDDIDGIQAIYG
Description: as §2, §3

Compound | pIC50 [2] | pIC50 [3] | further results
O=C(O)[C@H](CCC(=O)N1CCc2ccccc21)NS(=O)(=O)c1ccc(-c2ccc(Cl)cc2)cc1 (stereo in doubt) [Example 8, 2-(4′-Chlorobiphenyl-4-sulfonylamino)-5-(2,3-dihydroindol-1-yl)-5-oxopentanoic acid] | – | – | solubility at 2 h ([1]; thermodynamic from solid, water, 25° C., stirred 2 h, mean value from two determinations, read-out: Solubility in water at 25° C. after 2 h): 200 µg/mL (≈ 401 µM); solubility at 3 h ([1]; thermodynamic from solid, water, 25° C., stirred 3 h, mean value from two determinations, read-out: Solubility in water at 25° C. After 3 h): 100 µg/mL (≈ 200 µM); Solubility in water at 25° C. Result ([1]; water, 25° C., data value obtained after 3 h is used): 100 µg/mL (≈ 200 µM)
O=C(CC[C@H](NS(=O)(=O)c1ccc(-c2ccccc2)cc1)C(=O)O)Nc1cccc2ccccc12 [Example 1, 2-(biphenyl-4-sulfonylamino)4-(naphthalen-1-ylcarb-amoyl)butyric acid] | 7.00 | 8.00 | –
O=C(CC[C@H](NS(=O)(=O)c1ccc(-c2ccccc2)cc1)C(=O)O)Nc1ccc2ccccc2c1 [Example 2, 2-(biphenyl-4-sulfonylamino)-4-(naphthalen-2-yl-carbamoyl)butyric acid] | 6.70 | – | –
O=C(CC[C@H](NS(=O)(=O)c1ccc(-c2ccccc2)cc1)C(=O)O)NCCNc1ccccc1 [Example 3, 2-(biphenyl-4-sulfonylamino)-4-(2-phenylamino-ethylcarbamoyl)butyric acid] | 6.70 | – | –
O=C(CC[C@H](NS(=O)(=O)c1ccc(-c2ccc(Cl)cc2)cc1)C(=O)O)NCCCN1CCOCC1 [Example 4, 2-(4′-chloro-biphenyl-4-sulfonylamino)-4-(3-morpholin-4-ylpropylcarbamoyl)butyric acid] | 7.00 | – | –
O=C(CC[C@H](NS(=O)(=O)c1ccc(-c2ccccc2)cc1)C(=O)O)NCCCN1CCOCC1 [Example 5, 4-(3-(4-(Biphenyl-4-sulfonylamino)-4-carboxybutyrylamino)-propyl)morpholin-4-ium trifluoroacetate] | 7.00 | 8.22 | –
O=C(O)[C@H](CCC(=O)N1CCc2ccccc21)NS(=O)(=O)c1ccc(-c2ccccc2)cc1 [Example 6, 2-(Biphenyl-4-sulfonylamino)-5-(2,3-dihydroindol-1-yl)-5-oxopentanecarboxylic acid] | 6.30 | – | –
O=C(O)[C@H](CCC(=O)N1CCc2ccccc21)NS(=O)(=O)c1ccc(-c2ccc(N3CCCC3)cc2)cc1 [Example 7, 5-(2,3-dihydroindol-1-yl)-5-oxo-2-(4′-pyrrolidin-1-yl-biphenyl-4-sulfonyl-amino)pentanoic acid] | 7.40 | 8.40 | –
O=C(O)[C@H](CCC(=O)N1CCc2ccccc21)NS(=O)(=O)c1ccc(-c2ccc(Cl)cc2)cc1 [Example 8, 2-(4′-Chlorobiphenyl-4-sulfonylamino)-5-(2,3-dihydroindol-1-yl)-5-oxopentanoic acid] | 7.00 | 8.00 | –
O=C(O)[C@H](CCC(=O)N1CCc2ccccc21)NS(=O)(=O)c1ccc(-c2ccc(Br)cc2)cc1 [Example 9, 2-(4′-bromobiphenyl-4-sulfonyl-amino)-5-(2,3-dihydroindol-1-yl)-5-oxopentanoic acid] | 7.00 | – | –
O=C(O)[C@H](CCC(=O)N1CCc2cc(F)ccc21)NS(=O)(=O)c1ccc(-c2ccc(Cl)cc2)cc1 [Example 10, 2-(4′-chloro-biphenyl-4-sulfonylamino)-5-(5-fluoro-2,3-dihydroindol-1-yl)-5-oxopentanoic acid] | 7.00 | – | –
O=C(O)[C@H](CCC(=O)N1CCc2cc(F)ccc21)NS(=O)(=O)c1ccc(-c2ccc(Br)cc2)cc1 [Example 11, 2-(4′-bromobiphenyl-4-sulfonylamino)-5-(5-fluoro-2,3-dihydroindol-1-yl)-5-ox-opentanoic acid] | 7.00 | – | –
O=C(O)[C@H](CCC(=O)N1CCc2cc(F)ccc21)NS(=O)(=O)c1ccc(-c2ccc(N3CCCC3)cc2)cc1 [Example 12, 5-(5-Fluoro-2,3-dihydroindol-1-yl)-5-oxo-2-(4′-pyrrolidin-1-ylbiphenyl-4-sulfonylamino)pentanoic acid] | 7.52 | 8.70 | –
O=C(O)[C@H](CCC(=O)N1CCc2cc(F)ccc21)NS(=O)(=O)c1ccc(-c2ccc(N3CCOCC3)cc2)cc1 [Example 13, 5-(5-fluoro-2,3-dihydroindol-1-yl)-2-(4′-morpholin-4-yl-biphenyl-4-sulfonylamino)-5-oxopentanoic acid] | 7.00 | 8.00 | –
O=C(O)[C@@H](CCC(=O)N1CCc2ccccc21)NS(=O)(=O)c1ccc(-c2ccc(Cl)cc2)cc1 [Example 14] | 7.30 | 8.00 | –
NC(CO)(CO)CO.O=C(O)C(CCC(=O)N1CCc2ccccc21)NS(=O)(=O)c1ccc(-c2ccc(Cl)cc2)cc1 (stereo not shown) [Example 15, Tromethamine salt of 2-(4′-chlorobiphenyl-4-sulfonylamino)-5-(2,3-dihydroindol-1-yl)-5-oxopentanoic acid] | – | – | Solubility in water at 25° C. After 3 h [1]: 58000 µg/mL; Solubility in water at 25° C. Result [1]: 58000 µg/mL; Solubility in water at 25° C. after 2 h [1]: 58000 µg/mL; Water solubility of tromethamine salt higher than that of the free acid, factor [1]: ~600
